# In US7576241B2, “Derivatives of amidines, their preparation, their use as medicaments and the pharmaceutical compositions containing them” (Ipsen Pharma S.A.S., priority 1998, dated 2009):
row,melting point [°C],Structure (SMILES)
1,145 to 155,"NC(=Nc1ccc(CCNC(=O)/C=C/c2ccccc2O)cc1)c1cccs1 [Example 39, (E)-N-(4-{[amino(2-thienyl)methylidene]amino}phenethyl)-3-(2-hydroxyphenyl)-2-propenamide]"
2,196.4 to 197.6,"COc1cc(/C=C/C(=O)NCCc2ccc(N=C(N)c3cccs3)cc2)cc(OC)c1O [Example 42, (E)-N-(4-{[amino(2-thienyl)methylidene]amino}phenethyl)-3-(4-hydroxy-3,5-dimethoxyphenyl)-2-propenamide]"
3,237.8 to 239,"CC(=O)Nc1ccc(CNCCc2ccc(N=C(N)c3cccs3)cc2)cc1 [Example 58, N-(4-{[(4-{[amino(2-thienyl)methylidene]amino}phenethyl)-amino]methyl}phenyl)acetamide]"
4,> 230,"NC(=Nc1ccc(CCNCc2ccc3cccc(O)c3n2)cc1)c1cccs1 [Example 59, N′-[4-(2-{[(8-hydroxy-2-quinolinyl)methyl]amino}ethyl)phenyl]-2-thiophenecarboximidamide]"
5,151 to 153,"I.NC(=Nc1ccc(CCNCC=Cc2ccccc2)cc1)c1cccs1 [Example 60, N′-[4-(2-{[3-phenyl-2-propenyl]amino}ethyl)phenyl]-2-thiophenecarboximidamide hydroiodide]"
6,174 to 176,"COc1cc(C=CCNCCc2ccc(N=C(N)c3cccs3)cc2)ccc1O.O=C(O)/C=C/C(=O)O.O=C(O)/C=C/C(=O)O [Example 61, N′-[4-(2-{[3-(4-hydroxy-3-methoxyphenyl)-2-propenyl]amino}ethyl)phenyl]-2-thiophenecarboximidamide difumarate]"
7,182 to 184,"COc1cc(C=CCNCCc2ccc(N=C(N)c3cccs3)cc2)cc(OC)c1O.Cl.Cl [Example 62, N′-[4-(2-{[3-(4-hydroxy-3,5-dimethoxyphenyl)-2-propenyl]amino}ethyl)phenyl]-2-thiophenecarboximidamide dihydrochloride]"
8,> 230,"COc1cc(O)c(CNCCc2ccc(N=C(N)c3cccs3)cc2)c(OC)c1 [Example 64, N′-(4-{2-[(2-hydroxy-4,6-dimethoxybenzyl)amino]ethyl}phenyl)-2-thiophenecarboximidamide]"
